Results published in patent publication US12493042B2, “Molecules and methods for iterative polypeptide analysis and processing” (priority 2013, dated 2025).

Legend:
[1] = molecular target: T1, Edmanase (Edman degradation enzyme, modified cruzain) (Trypanosoma cruzi, UniProt P25779, A260C/C147G/G187S/L282Y); type: biochemical; settings: PITC-derivatized X-AMC substrate, 30 degrees, excitation 370 nm, emission 460 nm
T1 construct: His tag; made in house; host or cells: E. coli BL-21(De3), pet42(a)
Protocol: (§1) Single amino acid, aminomethylcoumarin (AMC) containing compounds were obtained from BAChem (Bubendorf, Switzerland). These included Arg-AMC, Asn-AMC, Phe-AMC, Met-AMC, Ala-AMC, and Pro-AMC. Phenylisothiocyanate (PITC) was purchased from Thermo-scientific and coupled to the N-terminus of each substrate by incubating for 10 minutes at room temperature in a 100 μL solution of acetonitrile:pyridine:water (10:5:3) with 5 μL of PITC. The derivatized substrate was then dried by rotary evaporation and suspended in 250 μL of 1× Phosphate Buffered Saline (PBS).
(§2) The ability of the Edman degradation enzyme to perform N-terminal cleavage on six substrates of the form Ed-X-AMC, where Ed denotes the Edman reagent, X is an amino acid from the set (Ala, […], Phe, Met, Pro, Arg), and AMC is the fluorogenic […] group was characterized. Cleavage of the X-AMC bond was monitored by the appearance of fluorescence (FIG. 6).
(§3) All kinetic measurements were performed in a 96-well corning plate on a BioTek Synergy2 plate reader at 30 degrees. Reactions were started by adding 5-20 μL of purified enzyme to 100 μL of 10 mM substrate solution. Final enzyme concentration was between 1 nM and 100 nM, depending on the experiment. Fluorescence of the cleaved product was measured by exciting at 370 nm (30 second intervals for 1-10 hours) and monitoring emissions at 460 nm. A standard curve using AMC from Invitrogen was referenced quantitate the amount of product formation.

[2] = molecular target: Edmanase (Edman degradation enzyme; Trypanosoma cruzi cruzain variant C25G/G65S/A138C/L160Y, SEQ ID NO: 29) (Trypanosoma cruzi, UniProt P25779, A260C/A295H/A296K/C147G/E217T/G187S/G216A/L282Y/N191D/Q141S/Q281S/S151A); type: biochemical; settings: Ed-X-AMC (PITC-derivatized) substrate; 30 degrees; 1 nM-100 nM enzyme; excitation 370 nm, emission 460 nm
Description: (§4) A synthetic gene containing the Edman degradation enzyme was purchased from GenScript. The gene encoded a modified version of the cruzian enzyme of T. cruzi having the following substitution mutations: C25G, G65S, A138C, and L160Y.
(§5) The gene was inserted between an NdeI andan XhoI site in a pet42(a) (Novagen) expression vector and transformed into E. coli, BL-21(De3) chemically competent cells. Protein was then over-expressed following Studier's auto-induction protocol. Bacterial cells were harvested by centrifugation of the cell culture at 5000 rpm and 4° C. for 10 minutes. Cells were then suspended in 1×PBS with 10% glycerol and 6M guanidine chloride, pH 7.4. Cells were then lysed by sonication (15 seconds at 20% power, 8 times on ice). The cell lysate was centrifuged at 18000 rpm, 4 degrees for 20 minutes. The supernatant was then filtered through a 0.2 μm cellulose acetate filter. The filtered lysate was loaded onto a 5 mL HisTrap (Ni-NTA) column and washed with 5 column volumes of binding buffer (50 mM Tris-HCl, 150 mM NaCl, 6M guanidine chloride, 25 mM imidazole). Bound protein was then eluted in 50 mM Tris-HCl, 150 mM NaCl, 6M guanidine chloride, 500 mM imidazole. Purified fractions were prepared for SDS-PAGE analysis by mixing 2 parts sample with 1 part 4× loading dye. Samples were analyzed on 16% SDS-PAGE precast gels, and visualized by Coomassie staining. The purified protein was then refolded by successive, overnight dialyses into 1×PBS containing 5M, 3M, 1M, 0.5M, and 0M guanidine chloride. Protein concentration was determined using the calculated molar extinction coefficient and measuring the A280 on an ND-8000 spectrophotometer (Thermo Fisher Scientific).
as §1, with “(PBS). Inhibitor compound, 1-(2-anilino-5-methyl-1,3-thiazol-4-yl)-ethanone, was ordered from Sigma-Aldrich (St. Louis, MO).” for “(PBS).”
as §2, §3

peptides = molecular target: T2, peptides (Thermus thermophilus, UniProt Q5SGX2, A229N/A231G/F152V/F205A/F336A/G338T/H142N/H143G/H212A/H232D/H287G/I228V/K234Y/K289N/L100D/L154K/L165D/L303D/L340G/M230E/W153G/Y257T); assay: Binding of Phe NAAB mutant to peptides compared with wild-type protein
T2 construct: a truncated version of wild-type Thermus Thermophilus PheRS (residues 86-350)

[3] = test system: Cc1cc(=O)oc2cc(NC(=O)[C@H](CCCNC(=N)N)NC(=S)Nc3ccccc3)ccc12; assay: purified protein, by the assay type; type: biochemical, Trypanosoma cruzi; settings: other: Ed-X-AMC (PITC-derivatized) substrate; 30 degrees; 1 nM-100 nM enzyme; excitation 370 nm, emission 460 nm; pH 7.4; 30.0 °C
Description: as §4, §5
as §1, with “(PBS). Inhibitor compound, 1-(2-anilino-5-methyl-1,3-thiazol-4-yl)-ethanone, was ordered from Sigma-Aldrich (St. Louis, MO).” for “(PBS).”
as §2, §3

[4] = test system: Cc1cc(=O)oc2cc(NC(=O)[C@H](Cc3ccccc3)NC(=S)Nc3ccccc3)ccc12; assay: purified protein, by the assay type; type: biochemical, Trypanosoma cruzi; settings: other: Ed-X-AMC (PITC-derivatized) substrate; 30 degrees; 1 nM-100 nM enzyme; excitation 370 nm, emission 460 nm; pH 7.4; 30.0 °C
Description: as §4, §5
as §1, with “(PBS). Inhibitor compound, 1-(2-anilino-5-methyl-1,3-thiazol-4-yl)-ethanone, was ordered from Sigma-Aldrich (St. Louis, MO).” for “(PBS).”
as §2, §3

[5] = molecular target: N-terminal amino acid of peptides; assay: Biolayer interferometry binding assays between peptides and purified NAABs; settings: 1×PBS; dissociation rate constant divided by association rate constant, 1:1 model; read-out: Measured Affinity Constants
Protocol: Real time binding assays between peptides and purified NAABs were performed using biolayer interferometry on a Blitz system (Fortebio, Menlo Park, CA). This system monitors interference of light reflected from the surface of a fiber optic sensor to measure the thickness of molecules bound to the sensor surface. Sensors coated with peptides were allowed to bind to the NAABs in 1×PBS at several different protein concentrations. Binding kinetics were calculated using the Blitz software package, which fit the observed binding curves to a 1:1 binding model to calculate the association rate constants. NAABs were allowed to dissociate by incubation of the sensors in 1×PBS. Dissociation curves were fit to a 1:1 model to calculate the dissociation rate constants. Binding affinities were calculated as the kinetic dissociation rate constant divided by the kinetic association rate constant.
Each square in the binding matrix represents the binding affinity for a single NAAB with an N-terminal amino acid as measured by biolayer interferometry. Each row in the matrix contains all the binding data for a single NAAB, and each column contains the binding data for a single N-terminal amino acid (shown by single-letter code).

T2 sequence (Q5SGX2 other isoform, or with tags, fused parts or gaps with the stated changes): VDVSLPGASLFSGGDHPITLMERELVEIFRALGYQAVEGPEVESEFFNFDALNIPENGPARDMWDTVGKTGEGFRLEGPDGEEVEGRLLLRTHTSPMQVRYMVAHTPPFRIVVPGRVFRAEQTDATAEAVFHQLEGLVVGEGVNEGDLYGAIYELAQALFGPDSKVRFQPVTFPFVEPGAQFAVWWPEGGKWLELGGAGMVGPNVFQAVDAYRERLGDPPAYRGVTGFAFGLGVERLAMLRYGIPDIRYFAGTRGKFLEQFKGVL

In the case of `C[C@H](N)C(=O)O` [Alanine], the Kcat [1] is reported as 0.55 s⁻¹ and the Km [1] is reported as 21.3 µM.
With `Cc1cc(=O)oc2cc(NC(=O)[C@H](CCCNC(=N)N)NC(=S)Nc3ccccc3)ccc12` [Arginine] the Kcat [2] was 0.087 s⁻¹.
`CSCC[C@H](NC(=S)Nc1ccccc1)C(=O)Nc1ccc2c(C)cc(=O)oc2c1` [Methionine] was tested, and the Kcat [2] was 0.54 s⁻¹ and the Km [2] was 272 µM.
For `N[C@@H](Cc1ccccc1)C(=O)O` [Phenylalanine], the “binding to peptides compared to the wild-type protein” value (peptides) was “Tighter binding”.
In the case of `O=C(O)[C@@H]1CCCN1` [Proline], the Kcat [1] is reported as 0.0014 s⁻¹ and the Km [1] is reported as 252 µM.
Compound “Edmanase (Edman degradation enzyme; Trypanosoma cruzi cruzain variant C25G/G65S/A138C/L160Y, SEQ ID NO: 29) (Trypanosoma cruzi; A260C/A295H/A296K/C147G/E217T/G187S/G216A/L282Y/N191D/Q141S/Q281S/S151A)” has a Km [3] of 167.8 µM, a Km [4] of 122.8 µM and a kcat [4] of 0.47 s⁻¹. For the same compound, the kcat/Km [4] was 3800 M⁻¹ s⁻¹.
Glutamate was tested, and the Kd [5] was 2120 nM.
